Data on 41 compounds can be found in US10112929B2, “Lactams as inhibitors of rock” (BRISTOL-MYERS SQUIBB COMPANY, priority 2015, dated 2018).

Where a name gives a salt, the structure may show the parent alone.
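Note: rho kinase enzyme reaction halted with EDTA, phospho- and non-phospho peptide separated for read-out, kinase activity inhibition derived across a dose-response series, DMSO under 2%.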

ROCK2, sequence (O75116 whole entry, species assumed): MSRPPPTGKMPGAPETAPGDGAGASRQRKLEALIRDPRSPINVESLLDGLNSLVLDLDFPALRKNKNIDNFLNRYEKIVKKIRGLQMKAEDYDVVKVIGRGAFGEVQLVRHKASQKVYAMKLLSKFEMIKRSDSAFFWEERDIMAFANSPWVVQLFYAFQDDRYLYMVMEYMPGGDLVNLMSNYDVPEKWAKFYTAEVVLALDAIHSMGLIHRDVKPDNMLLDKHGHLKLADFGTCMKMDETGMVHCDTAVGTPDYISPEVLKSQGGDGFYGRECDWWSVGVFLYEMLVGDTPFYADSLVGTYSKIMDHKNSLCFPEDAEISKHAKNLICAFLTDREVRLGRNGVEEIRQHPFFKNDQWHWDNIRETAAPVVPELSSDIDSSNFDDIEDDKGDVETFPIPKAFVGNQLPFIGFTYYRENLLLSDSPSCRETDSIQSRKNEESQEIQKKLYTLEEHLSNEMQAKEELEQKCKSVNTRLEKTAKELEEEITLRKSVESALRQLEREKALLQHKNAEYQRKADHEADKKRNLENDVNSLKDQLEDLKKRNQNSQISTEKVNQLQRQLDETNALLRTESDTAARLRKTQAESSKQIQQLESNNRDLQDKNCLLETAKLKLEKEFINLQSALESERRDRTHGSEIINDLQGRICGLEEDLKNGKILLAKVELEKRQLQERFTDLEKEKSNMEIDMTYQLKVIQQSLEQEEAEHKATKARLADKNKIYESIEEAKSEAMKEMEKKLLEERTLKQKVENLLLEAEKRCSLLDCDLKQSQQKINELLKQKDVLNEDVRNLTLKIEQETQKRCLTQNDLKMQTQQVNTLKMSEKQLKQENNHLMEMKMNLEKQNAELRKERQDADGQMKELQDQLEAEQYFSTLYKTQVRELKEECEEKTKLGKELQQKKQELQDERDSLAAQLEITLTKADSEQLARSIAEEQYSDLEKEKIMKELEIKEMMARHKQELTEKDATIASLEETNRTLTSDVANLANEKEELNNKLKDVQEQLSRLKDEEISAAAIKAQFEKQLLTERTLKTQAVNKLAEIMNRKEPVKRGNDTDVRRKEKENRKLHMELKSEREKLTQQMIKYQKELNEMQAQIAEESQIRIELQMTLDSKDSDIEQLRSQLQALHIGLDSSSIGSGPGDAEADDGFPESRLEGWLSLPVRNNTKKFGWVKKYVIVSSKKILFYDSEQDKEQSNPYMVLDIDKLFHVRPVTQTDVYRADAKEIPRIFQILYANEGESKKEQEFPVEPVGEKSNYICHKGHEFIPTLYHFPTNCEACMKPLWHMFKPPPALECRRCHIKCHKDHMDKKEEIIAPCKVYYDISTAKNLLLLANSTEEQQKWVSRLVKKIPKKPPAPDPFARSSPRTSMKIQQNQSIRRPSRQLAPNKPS

This test concerns the target ROCK2 (Homo sapiens (Human), UniProt O75116). Briefly: biochemical.
Broadly, the IC50 is the concentration that gives 50% inhibition. Take `COc1cc(N2CCC(Nc3cccc(F)c3)C2=O)ccc1-c1cn[nH]c1` (centres unmarked) [Example 72, 3-((3-fluorophenyl)amino)-1-(3-methoxy-4-(1H-pyrazol-4-yl)phenyl)pyrrolidin-2-one]: the IC50 is under 10 nM.

The compound `COc1cc(N2CCC(Nc3cccc(NS(C)(=O)=O)c3)C2=O)ccc1-c1cn[nH]c1` (centres unmarked) [Example 73, N-(3-((1-(3-methoxy-4-(1H-pyrazol-4-yl)phenyl)-2-oxopyrrolidin-3-yl)amino)phenyl)methanesulfonamide] gave an IC50 of 10 to 100 nM. For `COc1cc(F)cc(NC2CCN(c3ccc(-c4cn[nH]c4)cn3)C2=O)c1` (centres unmarked) [Example 82, 1-(5-(1H-pyrazol-4-yl)pyridin-2-yl)-3-((3-fluoro-5-methoxyphenyl)amino)pyrrolidin-2-one], the IC50 was under 10 nM.

Turning to `O=C1C(Cc2cccc(F)c2)CCN1c1ccc(-c2cn[nH]c2)cc1` (centres unmarked) [Example 91, 1-(4-(1H-pyrazol-4-yl)phenyl)-3-(3-fluorobenzyl)pyrrolidin-2-one], the IC50 fell in the range of 100 to 2200 nM. The compound `O=C1C(Cc2ccccc2)CCN1c1ccc(-c2cn[nH]c2)cc1` (centres unmarked) [Example 92, 1-(4-(1H-pyrazol-4-yl)phenyl)-3-benzylpyrrolidin-2-one] gave an IC50 of 100 to 2200 nM.

In the case of `COc1cccc(CC2CCN(c3ccc(-c4cn[nH]c4)cc3)C2=O)c1` (centres unmarked) [Example 93, 1-(4-(1H-pyrazol-4-yl)phenyl)-3-(3-methoxybenzyl)pyrrolidin-2-one], the IC50 was 100 to 2200 nM. `O=C1C(Cc2c(F)cccc2F)CCN1c1ccc(-c2cn[nH]c2)cc1` (centres unmarked) [Example 94, 1-(4-(1H-pyrazol-4-yl)phenyl)-3-(2,6-difluorobenzyl)pyrrolidin-2-one] displayed an IC50 of 100 to 2200 nM. Turning to `O=C1C(Cc2ccccc2Cl)CCN1c1ccc(-c2cn[nH]c2)cc1` (centres unmarked) [Example 95, 1-(4-(1H-pyrazol-4-yl)phenyl)-3-(2-chlorobenzyl)pyrrolidin-2-one], the IC50 is 100 to 2200 nM. `O=C1C(Cc2ccccc2F)CCN1c1ccc(-c2cn[nH]c2)cc1` (centres unmarked) [Example 96, 1-(4-(1H-pyrazol-4-yl)phenyl)-3-(2-fluorobenzyl)pyrrolidin-2-one] returned an IC50 of 10 to 100 nM. `N#Cc1cccc(CC2CCN(c3ccc(-c4cn[nH]c4)cc3)C2=O)c1` (centres unmarked) [Example 97, 3-((1-(4-(1H-pyrazol-4-yl)phenyl)-2-oxopyrrolidin-3-yl)methyl)benzonitrile] registered an IC50 of 100 to 2200 nM. Take `O=C1C(Cc2ccc(F)cc2)CCN1c1ccc(-c2cn[nH]c2)cc1` (centres unmarked) [Example 98, 1-(4-(1H-pyrazol-4-yl)phenyl)-3-(4-fluorobenzyl)pyrrolidin-2-one]: the half-inhibitory concentration (IC50) fell in the range of 100 to 2200 nM.

As to `COc1cccc(CCC2CCN(c3ccc(-c4cn[nH]c4)cc3)C2=O)c1` (centres unmarked) [Example 99, 1-(4-(1H-pyrazol-4-yl)phenyl)-3-(3-methoxyphenethyl)pyrrolidin-2-one], the IC50 was 10 to 100 nM. `O=C1C(CCc2ccccc2Cl)CCN1c1ccc(-c2cn[nH]c2)cc1` (centres unmarked) [Example 100, 1-(4-(1H-pyrazol-4-yl)phenyl)-3-(2-chlorophenethyl)pyrrolidin-2-one] returned a half-inhibitory concentration (IC50) of 100 to 2200 nM. In the case of `O=C1C(c2ccccc2)CCN1c1ccc(-c2cn[nH]c2)cc1` (centres unmarked) [Example 101, 1-(4-(1H-pyrazol-4-yl)phenyl)-3-phenylpyrrolidin-2-one], the IC50 lay in the range of 10 to 100 nM. Take `O=C1C(c2cccc(F)c2)CCN1c1ccc(-c2cn[nH]c2)cc1` (centres unmarked) [Example 102, 1-(4-(1H-pyrazol-4-yl)phenyl)-3-(3-fluorophenyl)pyrrolidin-2-one]: the IC50 was in the range of 100 to 2200 nM.

On to `COc1cccc(C2CCN(c3ccc(-c4cn[nH]c4)cc3)C2=O)c1` (centres unmarked) [Example 103, 1-(4-(1H-pyrazol-4-yl)phenyl)-3-(3-methoxyphenyl)pyrrolidin-2-one], for which the IC50 is under 10 nM. `O=C1C(c2ccccc2F)CCN1c1ccc(-c2cn[nH]c2)cc1` (centres unmarked) [Example 104, 1-(4-(1H-pyrazol-4-yl)phenyl)-3-(2-fluorophenyl)pyrrolidin-2-one] returned an IC50 of 10 to 100 nM. For the compound `O=C1C(c2ccccc2Cl)CCN1c1ccc(-c2cn[nH]c2)cc1` (centres unmarked) [Example 105, 1-(4-(1H-pyrazol-4-yl)phenyl)-3-(2-chlorophenyl)pyrrolidin-2-one], the IC50 is 10 to 100 nM. As for `COc1cccc(OC2CCN(c3ccc(-c4cn[nH]c4)cc3)C2=O)c1` (centres unmarked) [Example 108, 1-(4-(1H-Pyrazol-4-yl)phenyl)-3-(3-methoxyphenoxy)pyrrolidin-2-one, TFA], the IC50 is 10 to 100 nM. On to `Cc1cccc(OC2CCN(c3ccc(-c4cn[nH]c4)cc3)C2=O)c1` (centres unmarked) [Example 109, 1-(4-(1H-pyrazol-4-yl)phenyl)-3-(m-tolyloxy)pyrrolidin-2-one], for which the IC50 lay in the range of 100 to 2200 nM.

`O=C1C(Oc2ccccc2Cl)CCN1c1ccc(-c2cn[nH]c2)cc1` (centres unmarked) [Example 110, 1-(4-(1H-pyrazol-4-yl)phenyl)-3-(2-chlorophenoxy)pyrrolidin-2-one] yielded an IC50 of 10 to 100 nM. For `COc1ccc(F)c(OC2CCN(c3ccc(-c4cn[nH]c4)cc3)C2=O)c1` (centres unmarked) [Example 111, 1-(4-(1H-pyrazol-4-yl)phenyl)-3-(2-fluoro-5-methoxyphenoxy)pyrrolidin-2-one], the IC50 fell in the range of 10 to 100 nM. In turn, `COc1cc(F)cc(OC2CCN(c3ccc(-c4cn[nH]c4)cc3)C2=O)c1` (centres unmarked) [Example 112, 1-(4-(1H-pyrazol-4-yl)phenyl)-3-(3-fluoro-5-methoxyphenoxy)pyrrolidin-2-one] gave an IC50 of 100 to 2200 nM. Next, `Nc1cccc(OC2CCN(c3ccc(-c4cn[nH]c4)cc3)C2=O)c1` (centres unmarked) [Example 113, 1-(4-(1H-pyrazol-4-yl)phenyl)-3-(3-aminophenoxy)pyrrolidin-2-one, TFA]: 10 to 100 nM; `Cc1nc2ccc(NC3CCN(c4ccc(-c5cn[nH]c5)cc4)C3=O)cc2s1` (centres unmarked) [Example 115, 1-(4-(1H-pyrazol-4-yl)phenyl)-3-((2-methylbenzo[d]thiazol-6-yl)amino)pyrrolidin-2-one]: 100 to 2200 nM; `N#Cc1ccnc(NC2CCN(c3ccc(-c4cn[nH]c4)cc3)C2=O)c1` (centres unmarked) [Example 116, 2-((1-(4-(1H-Pyrazol-4-yl)phenyl)-2-oxopyrrolidin-3-yl)amino)isonicotinonitrile]: 10 to 100 nM. Turning to `COc1cccc(NC2CCN(c3ccc(-c4cn[nH]c4)c(OC)n3)C2=O)c1C` (centres unmarked) [Example 117, 3-((3-Methoxy-2-methylphenyl)amino)-1-(6-methoxy-5-(1H-pyrazol-4-yl)pyridin-2-yl)pyrrolidin-2-one], the IC50 is under 10 nM. `COc1cccc(NC2CCN(c3ccc(-c4ccncc4F)c(OC)n3)C2=O)c1` (centres unmarked) [Example 118, 1-(3′-Fluoro-2-methoxy-[3,4′-bipyridin]-6-yl)-3-((3-methoxyphenyl)amino) pyrrolidin-2-one] returned an IC50 of under 10 nM.

Turning to `COc1cccc(NC2CCN(c3ncc(-c4cn[nH]c4)c(OC)n3)C2=O)c1` (centres unmarked) [Example 132, 1-(4-Methoxy-5-(1H-pyrazol-4-yl)pyrimidin-2-yl)-3-((3-methoxyphenyl)amino) pyrrolidin-2-one], the half-maximal inhibitory concentration (IC50) is 10 to 100 nM.

The compound `COc1cccc(N[C@H]2C(=O)N(c3ccc(-c4cn[nH]c4)cc3)C[C@@H]2CO)c1` [Example 133, (3R,4S)-1-(4-(1H-Pyrazol-4-yl)phenyl)-4-(hydroxymethyl)-3-((3-methoxyphenyl)amino) pyrrolidin-2-one] yielded an IC50 of under 10 nM.

`COc1cccc(NC2CCN(c3cnc(-c4cn[nH]c4)c(OC)n3)C2=O)c1` (centres unmarked) [Example 134, 1-(6-Methoxy-5-(1H-pyrazol-4-yl)pyrazin-2-yl)-3-((3-methoxyphenyl)amino) pyrrolidin-2-one] showed an IC50 of under 10 nM. For `COc1cccc(N[C@@H]2CCN(c3ccc(-c4cn[nH]c4)cc3)C2=O)c1` [Example 383, (R)-1-(4-(1H-Pyrazol-4-yl)phenyl)-3-((3-methoxyphenyl)amino)pyrrolidin-2-one], the IC50 is under 10 nM.

Regarding `COc1ccc(N[C@@H]2CCN(c3ccc(-c4cn[nH]c4)cc3)C2=O)c(OC)c1` [Example 384, (R)-1-(4-(1H-pyrazol-4-yl)phenyl)-3-((2,4-dimethoxyphenyl)amino)pyrrolidin-2-one], the IC50 lay within 100 to 2200 nM. The result for `COc1cccc(N[C@@H]2CCN(c3ccc(-c4cn[nH]c4)cc3)C2=O)c1OC` [Example 385, (R)-1-(4-(1H-pyrazol-4-yl)phenyl)-3-((2,3-dimethoxyphenyl)amino)pyrrolidin-2-one] reads 100 to 2200 nM. `N#Cc1cccc(N[C@@H]2CCN(c3ccc(-c4cn[nH]c4)cc3)C2=O)c1` [Example 387, (R)-3-((1-(4-(1H-pyrazol-4-yl)phenyl)-2-oxopyrrolidin-3-yl)amino)benzonitrile] registered a half-maximal inhibitory concentration (IC50) of 10 to 100 nM. The result for `NC(=O)c1cccc(NC2CCN(c3ccc(-c4cn[nH]c4)cc3)C2=O)c1` (centres unmarked) [Example 388, 3-((1-(4-(1H-pyrazol-4-yl)phenyl)-2-oxopyrrolidin-3-yl)amino)benzamide] reads under 10 nM; that for `COc1ccc(N[C@@H]2CCN(c3ccc(-c4cn[nH]c4)cc3)C2=O)cc1OC` [Example 389, (R)-1-(4-(1H-pyrazol-4-yl)phenyl)-3-((3,4-dimethoxyphenyl)amino)pyrrolidin-2-one], 100 to 2200 nM. As to `CN(C)c1cccc(N[C@@H]2CCN(c3ccc(-c4cn[nH]c4)cc3)C2=O)c1` [Example 390, (R)-1-(4-(1H-pyrazol-4-yl)phenyl)-3-((3-(dimethylamino)phenyl)amino)pyrrolidin-2-one], the IC50 fell in the range of 100 to 2200 nM. As to `CC(=O)Nc1cccc(NC2CCN(c3ccc(-c4cn[nH]c4)cc3)C2=O)c1` (centres unmarked) [Example 391, N-(3-((1-(4-(1H-pyrazol-4-yl)phenyl)-2-oxopyrrolidin-3-yl)amino)phenyl)acetamide], the IC50 was in the range of 10 to 100 nM. Compound `O=C1[C@H](Nc2ccc3c(c2)CS(=O)(=O)C3)CCN1c1ccc(-c2cn[nH]c2)cc1` [Example 392, (R)-1-(4-(1H-pyrazol-4-yl)phenyl)-3-((2,2-dioxido-1,3-dihydrobenzo[c]thiophen-5-yl)amino)pyrrolidin-2-one] came in with a half-inhibitory concentration (IC50) of 100 to 2200 nM.

`O=C1[C@H](N2CCc3ccccc32)CCN1c1ccc(-c2cn[nH]c2)cc1` [Example 393, (R)-1-(4-(1H-pyrazol-4-yl)phenyl)-3-(indolin-1-yl)pyrrolidin-2-one] showed an IC50 of 10 to 100 nM.
